{"source": "patent US9944598B2", "about": "“Mono- or di-substituted indole derivatives as dengue viral replication inhibitors” (priority 2014, dated 2018)", "key": {"[1]": {"system": "DENV-2 16681 strain labeled with eGFP", "assay": "DENV-2 antiviral assay (eGFP fluorescence, Vero cells)", "format": "cell-based, Dengue virus", "settings": "DENV-2 16681 eGFP, MOI 0.5, 3 days", "experimental": "The antiviral activity of all the compounds of the invention was tested against DENV-2 16681 strain which was labeled with enhanced green fluorescent protein (eGPF). The culture medium consists of minimal essential medium supplemented with 2% of heat-inactivated fetal calf serum, 0.04% gentamycin (50 mg/mL) and 2 mM of L-glutamine. Vero cells, obtained from ECACC, were suspended in culture medium and 25 μL was added to 384-well plates (2500 cells/well), which already contain the antiviral compounds. Typically, these plates contain a 4-fold serial dilution of 9 dilution steps of the test compound at 200 times the final concentration in 100% DMSO (200 nL). In addition, each compound concentration is tested in quadruplicate (final concentration range: 25 μM-0.00038 μM). Finally, each plate contains wells which are assigned as virus controls (containing cells and virus in the absence of compound), cell controls (containing cells in the absence of virus and compound) and medium controls (containing medium in the absence of cells, virus and compounds). To the wells assigned as medium control, 25 μL of culture medium was added instead of Vero cells. Once the cells were added to the plates, the plates were incubated for 30 minutes at room temperature to allow the cells to distribute evenly within the wells. Next, the plates were incubated in a fully humidified incubator (37° C., 5% CO2) until the next day. Then, DENV-2 strain 16681, labeled with eGFP, was added at a multiplicity of infection (MOI) of 0.5. Therefore, 15 μL of virus suspension was added to all the wells containing test compound and to the wells assigned as virus control. In parallel, 15 μL of culture medium was added to the medium and cell controls. Next, the plates were incubated for 3 days in a fully humidified incubator (37° C., 5% CO2). At the day of the read out, the eGFP fluorescence was measured using an automated fluorescence microscope at 488 nm (blue laser). Using an in-house LIMS system, inhibition dose response curves for each compound were calculated and the half maximal effective concentration (EC50) was determined. Therefore, the percent inhibition (I) for every test concentration is calculated using the following formula: I=100*(ST−SCC)/(SVC−SCC); ST, SCC and SVC are the amount of eGFP signal in the test compound, cell control and virus control wells, respectively. The EC50 represents the concentration of a compound at which the virus replication is inhibited with 50%, as measured by a 50% reduction of the eGFP fluorescent intensity compared to the virus control. The EC50 is calculated using linear interpolation (Table 1)."}, "[2]": {"system": "DENV-3 strain H87 prototype", "assay": "Tetravalent RT-qPCR assay Protocol B, serotype 3", "format": "cell-based", "settings": "Dengue virus, DENV3, 168 h, RT-qPCR serotype 3 H87, Vero cells, 7 days", "experimental": "Vero cells (4×10^4) were seeded in 96-well plates. After one day, cell culture medium was replaced with 100 μL assay medium containing a 2×, 3× or 5× serial dilution of the compound (concentration range: 50 μg/mL-0.00038 μg/mL, 50 μg/mL-0.0076 μg/mL, and 50 μg/mL-0.00013 μg/mL, respectively) and 100 μL of dengue virus dilution, where a Ct of ˜20 is achieved in RTqPCR. Following a 2 hour incubation period, the cell monolayer was washed 3 times with assay medium to remove residual, non-adsorbed virus and cultures were further incubated for either 4 days (DENV-2 NGC-Tongalike) or 7 days (DENV-1 Djibouti strain D1/H/IMTSSA/98/606, DENV-3 strain H87 prototype, DENV-4 strain H241) in the presence of the inhibitor. Supernatant was harvested and viral RNA load was determined by real-time quantitative RT-PCR. The 50% effective concentration (EC50), which is defined as the compound concentration that is required to inhibit viral RNA replication by 50%, was determined using logarithmic interpolation (Tables 7 and 8).\nRNA was isolated from 100 μL supernatant with the NucleoSpin 96 Virus kit (Filter Service, Düren, Germany) as described by the manufacturer. The sequences of the TaqMan primers (DENV-For, DENV-Rev; Table 5) and TaqMan probes (DENV-Probe Table 5) were selected from non-structural gene 3 (NS3) or NSS, of the respective flaviviruses using Primer Express software (version 2.0; Applied Biosystems, Lennik, Belgium). The TaqMan probe was fluorescently labelled with 6-carboxyfluorescein (FAM) at the 5′ end as the reporter dye, and with minor groove binder (MGB) at the 3′ end as the quencher (Table 5). One-step, quantitative RT-PCR was performed in a total volume of 25 μL, containing 13.9375 μL H2O, 6.25 μL master mix (Eurogentec, Seraing, Belgium), 0.375 μL forward primer, 0.375 μL reverse primer, 1 μL probe, 0.0625 μL reverse transcriptase (Eurogentec) and 3 μL sample. RT-PCR was performed using the ABI 7500 Fast Real-Time PCR System (Applied Biosystems, Branchburg, N.J., USA) using the following conditions: 30 min at 48° C. and 10 min at 95° C., followed by 40 cycles of 15 s at 95° C. and 1 min at 60° C. The data was analyzed using the ABI PRISM 7500 SDS software (version 1.3.1; Applied Biosystems). For absolute quantification, standard curves were generated using 10-fold dilutions of template preparations of known concentrations."}, "[3]": {"system": "uninfected Vero cells", "assay": "in vitro", "format": "cell-based", "settings": "African green monkey", "experimental": "(§1) Potential cytotoxic effects of the compounds were evaluated in uninfected Vero cells. Cells were seeded at 4×10^4 cells/well in a 96-well plate in the presence of two-, three- or five-fold serial dilutions (ranging from 50 μg/mL-0.0038 μg/mL, 50 μg/mL-0.0076 μg/mL, and 50 μg/mL-0.00013 μg/mL, respectively) of compound and incubated for 4 to 7 days. Culture medium was discarded and 100 μL 3-(4,5-dimethylthiazol-2-yl)-5-(3-carboxymethoxyphenyl)-2-(4-sulfophenyl)-2H-tetrazolium/phenazinemethosulfate (MTS/PMS; Promega, Leiden, The Netherlands) in PBS was added to each well. Following a 2-hour incubation period at 37° C., the optical density was determined at 498 nm. Cytotoxic activity was calculated using the following formula: % cell viability=100×(ODCompound/ODCC), where ODCompound and ODCC correspond to the optical density at 498 nm of the uninfected cell cultures treated with compound and that of uninfected, untreated cell cultures, respectively. The 50% cytotoxic concentration (i.e., the concentration that reduces the total cell number with 50%; CC50) was calculated using linear interpolation (Tables 7 and 8)."}, "[4]": {"assay": "in vitro", "format": "cell-based", "settings": "African green monkey, CC50", "experimental": "as §1"}}, "data": [{"smiles": "COc1cc(NC(C(=O)c2c[nH]c3cc(OC)ccc23)c2ccc(Cl)cc2OC)cc(OCCO)c1", "note": "(single isomer, unassigned) [Compound 5A, 2-(4-chloro-2-methoxyphenyl)-2-((3-(2-hydroxyethoxy)-5-methoxyphenyl)amino)-1-(6-methoxy-1H-indol-3-yl)ethanone]", "values": [{"measurement": "EC50", "setting": "[1]", "value": 0.00084, "unit": "µM"}, {"measurement": "EC50", "setting": "[2]", "value": 0.025, "unit": "µM"}, {"measurement": "CC50", "setting": "[3]", "value": 11, "unit": "µM"}, {"measurement": "CC50", "setting": "[4]", "value": 7.8, "unit": "µM"}]}, {"smiles": "COc1cc(NC(C(=O)c2c[nH]c3c(C)c(Cl)ccc23)c2ccc(Cl)cc2OC)cc(OCCO)c1", "note": "(single isomer, unassigned) [Compound 3A, 2-(4-chloro-2-methoxyphenyl)-1-(6-chloro-7-methyl-1H-indol-3-yl)-2-((3-(2-hydroxyethoxy)-5-methoxyphenyl)amino)ethanone]", "values": [{"measurement": "EC50", "setting": "[1]", "value": 0.00034, "unit": "µM"}, {"measurement": "EC50", "setting": "[2]", "value": 0.02, "unit": "µM"}, {"measurement": "CC50", "setting": "[3]", "value": 12, "unit": "µM"}, {"measurement": "CC50", "setting": "[4]", "value": 7.7, "unit": "µM"}]}, {"smiles": "COc1cc(NC(C(=O)c2c[nH]c3cc(F)c(F)cc23)c2ccc(Cl)cc2OC)cc(OCCO)c1", "note": "(single isomer, unassigned) [Compound 9A, 2-(4-chloro-2-methoxyphenyl)-1-(5,6-difluoro-1H-indol-3-yl)-2-((3-(2-hydroxyethoxy)-5-methoxyphenyl)amino)ethanone]", "values": [{"measurement": "EC50", "setting": "[2]", "value": 0.018, "unit": "µM"}, {"measurement": "CC50", "setting": "[3]", "value": 12, "unit": "µM"}, {"measurement": "CC50", "setting": "[4]", "value": 7.9, "unit": "µM"}]}, {"smiles": "COc1cc(NC(C(=O)c2c[nH]c3cc(F)ccc23)c2ccc(Cl)cc2OC)cc(OCCO)c1", "note": "(single isomer, unassigned) [Compound 1A, 2-(4-chloro-2-methoxyphenyl)-1-(6-fluoro-1H-indol-3-yl)-2-((3-(2-hydroxyethoxy)-5-methoxyphenyl)amino)ethanone]", "values": [{"measurement": "EC50", "setting": "[1]", "value": 0.00081, "unit": "µM"}, {"measurement": "EC50", "setting": "[2]", "value": "< 0.015", "unit": "µM"}, {"measurement": "CC50", "setting": "[3]", "value": 14, "unit": "µM"}, {"measurement": "CC50", "setting": "[4]", "value": 9.7, "unit": "µM"}]}, {"smiles": "COc1cc(NC(C(=O)c2c[nH]c3c(C)cc(F)cc23)c2ccc(Cl)cc2OC)cc(OCCO)c1", "note": "(single isomer, unassigned) [Compound 8A, 2-(4-chloro-2-methoxyphenyl)-1-(5-fluoro-7-methyl-1H-indol-3-yl)-2-((3-(2-hydroxyethoxy)-5-methoxyphenyl)amino)ethanone]", "values": [{"measurement": "EC50", "setting": "[1]", "value": 0.0012, "unit": "µM"}, {"measurement": "EC50", "setting": "[2]", "value": 0.032, "unit": "µM"}, {"measurement": "CC50", "setting": "[3]", "value": 11, "unit": "µM"}, {"measurement": "CC50", "setting": "[4]", "value": 7.7, "unit": "µM"}]}, {"smiles": "COc1cc(NC(C(=O)c2c[nH]c3c(C)c(F)ccc23)c2ccc(Cl)cc2OC)cc(OCCO)c1", "note": "(single isomer, unassigned) [Compound 2A, 2-(4-chloro-2-methoxyphenyl)-1-(6-fluoro-7-methyl-1H-indol-3-yl)-2-((3-(2-hydroxyethoxy)-5-methoxyphenyl)amino)ethanone]", "values": [{"measurement": "EC50", "setting": "[1]", "value": 0.00081, "unit": "µM"}, {"measurement": "EC50", "setting": "[2]", "value": 0.021, "unit": "µM"}, {"measurement": "CC50", "setting": "[3]", "value": 13, "unit": "µM"}, {"measurement": "CC50", "setting": "[4]", "value": 7.4, "unit": "µM"}]}, {"smiles": "COc1cc(NC(C(=O)c2c[nH]c3cc(OC)c(F)cc23)c2ccc(Cl)cc2OC)cc(OCCO)c1", "note": "(single isomer, unassigned) [Compound 7A, 2-(4-chloro-2-methoxyphenyl)-1-(5-fluoro-6-methoxy-1H-indol-3-yl)-2-((3-(2-hydroxyethoxy)-5-methoxyphenyl)amino)ethanone]", "values": [{"measurement": "EC50", "setting": "[1]", "value": 0.0011, "unit": "µM"}, {"measurement": "EC50", "setting": "[2]", "value": "< 0.017", "unit": "µM"}, {"measurement": "CC50", "setting": "[3]", "value": 12, "unit": "µM"}, {"measurement": "CC50", "setting": "[4]", "value": 7.2, "unit": "µM"}]}, {"smiles": "COc1cc(NC(C(=O)c2c[nH]c3cc(OC)c(C)cc23)c2ccc(Cl)cc2OC)cc(OCCO)c1", "note": "(single isomer, unassigned) [Compound 6A, 2-(4-chloro-2-methoxyphenyl)-2-((3-(2-hydroxyethoxy)-5-methoxyphenyl)amino)-1-(6-methoxy-5-methyl-1H-indol-3-yl)ethanone]", "values": [{"measurement": "EC50", "setting": "[1]", "value": 0.00082, "unit": "µM"}, {"measurement": "EC50", "setting": "[2]", "value": "< 0.015", "unit": "µM"}, {"measurement": "CC50", "setting": "[3]", "value": 13, "unit": "µM"}, {"measurement": "CC50", "setting": "[4]", "value": 8.1, "unit": "µM"}]}, {"smiles": "COc1cc(NC(C(=O)c2c[nH]c3cc(Cl)ccc23)c2ccc(Cl)cc2OC)cc(OCCO)c1", "note": "(single isomer, unassigned) [Compound 4A, 1-(6-chloro-1H-indol-3-yl)-2-(4-chloro-2-methoxyphenyl)-2-((3-(2-hydroxyethoxy)-5-methoxyphenyl)amino)ethanone]", "values": [{"measurement": "EC50", "setting": "[1]", "value": 0.0007, "unit": "µM"}, {"measurement": "EC50", "setting": "[2]", "value": 0.029, "unit": "µM"}, {"measurement": "CC50", "setting": "[3]", "value": 13, "unit": "µM"}, {"measurement": "CC50", "setting": "[4]", "value": 9.5, "unit": "µM"}]}, {"smiles": "COc1cc(NC(C(=O)c2c[nH]c3c(F)cc(C)cc23)c2ccc(Cl)cc2OC)cc(OCCO)c1", "note": "(single isomer, unassigned) [Compound 10A, 2-(4-chloro-2-methoxyphenyl)-1-(7-fluoro-5-methyl-1H-indol-3-yl)-2-((3-(2-hydroxyethoxy)-5-methoxyphenyl)amino)ethanone]", "values": [{"measurement": "EC50", "setting": "[1]", "value": 0.0032, "unit": "µM"}, {"measurement": "EC50", "setting": "[2]", "value": 0.027, "unit": "µM"}, {"measurement": "CC50", "setting": "[3]", "value": 12, "unit": "µM"}, {"measurement": "CC50", "setting": "[4]", "value": 8, "unit": "µM"}]}, {"smiles": "COc1cc(NC(C(=O)c2c[nH]c3c(F)c(F)ccc23)c2ccc(Cl)cc2OC)cc(OCCO)c1", "note": "(single isomer, unassigned) [Compound 11B, 2-(4-chloro-2-methoxyphenyl)-1-(6,7-difluoro-1H-indol-3-yl)-2-((3-(2-hydroxyethoxy)-5-methoxyphenyl)amino)ethanone]", "values": [{"measurement": "EC50", "setting": "[1]", "value": 0.0012, "unit": "µM"}, {"measurement": "EC50", "setting": "[2]", "value": 0.026, "unit": "µM"}, {"measurement": "CC50", "setting": "[3]", "value": 11, "unit": "µM"}, {"measurement": "CC50", "setting": "[4]", "value": 7.7, "unit": "µM"}]}]}
